Patent US8420144B2, “Kokumi-imparting agent, method of using, and compositions containing same” (Ajinomoto Co., Inc., priority 2005, dated 2013)

Target: T1, human CaSR (Homo sapiens, UniProt P41180)
T1 construct: expressed in transfected cells; host or cells: HEK 293 cells, transient transfection of a CMV-promoter expression vector
T1 sequence (P41180 20-1078): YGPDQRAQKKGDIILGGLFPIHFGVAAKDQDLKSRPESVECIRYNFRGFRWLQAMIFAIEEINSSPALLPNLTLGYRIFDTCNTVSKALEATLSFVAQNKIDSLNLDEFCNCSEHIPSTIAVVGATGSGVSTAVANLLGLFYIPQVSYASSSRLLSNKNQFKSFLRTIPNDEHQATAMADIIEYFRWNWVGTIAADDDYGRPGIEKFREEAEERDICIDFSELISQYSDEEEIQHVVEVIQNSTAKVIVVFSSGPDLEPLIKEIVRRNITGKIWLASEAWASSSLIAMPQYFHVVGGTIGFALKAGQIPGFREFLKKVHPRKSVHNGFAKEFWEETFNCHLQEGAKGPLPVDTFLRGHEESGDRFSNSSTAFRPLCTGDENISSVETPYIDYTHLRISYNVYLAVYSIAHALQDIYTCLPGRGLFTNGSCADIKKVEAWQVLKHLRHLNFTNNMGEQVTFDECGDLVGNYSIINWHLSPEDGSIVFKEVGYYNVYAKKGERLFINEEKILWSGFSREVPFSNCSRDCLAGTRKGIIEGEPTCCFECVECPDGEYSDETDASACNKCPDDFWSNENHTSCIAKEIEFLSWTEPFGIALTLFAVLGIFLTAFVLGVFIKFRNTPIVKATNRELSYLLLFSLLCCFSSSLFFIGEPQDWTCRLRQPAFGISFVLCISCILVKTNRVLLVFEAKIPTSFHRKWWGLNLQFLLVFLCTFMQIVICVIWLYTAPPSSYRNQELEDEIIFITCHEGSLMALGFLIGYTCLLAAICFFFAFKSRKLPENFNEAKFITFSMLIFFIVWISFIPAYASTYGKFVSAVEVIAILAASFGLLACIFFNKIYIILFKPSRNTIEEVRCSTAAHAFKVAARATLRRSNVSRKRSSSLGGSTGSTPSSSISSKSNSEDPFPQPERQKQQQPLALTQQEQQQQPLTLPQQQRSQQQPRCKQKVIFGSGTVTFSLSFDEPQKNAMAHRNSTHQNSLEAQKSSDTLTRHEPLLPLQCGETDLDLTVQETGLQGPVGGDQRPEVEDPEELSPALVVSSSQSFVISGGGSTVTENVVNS
Test: Calcium receptor (CaSR) activation activity: calcium imaging in HEK 293 cells expressing human CaSR
Format: cell-based
Settings: concentration giving 50% of the maximal activity; single values n = 1, others n = 2 or 3
Method: Calcium receptor (CaSR) activation activity of peptides obtained in Examples 2, 3, and 5-12 were measured as follows. A cDNA of human CaSR obtained in Example 1 of WO2007/055393A1 was inserted into an expression vector for an animal cell having a CMV promoter, and the cDNA in the vector was introduced into HEK 293 cells, which had multiplied to 70% of the maximal cell density, using FuGINE6 (Roche Ltd.). After culturing the cells for 4 to 48 hours, 0.6-1.0×10^5 of cells/well were disseminated into a 96-well plate, subsequently, the cells were cultured for one day, and then stained using Calcium 3 Assay Kit. The presence or absence of a calcium receptor activation activity of each peptide was confirmed by a calcium imaging method using FLEXSTATION (Molecular Devices Inc., instruction manual). Furthermore, the concentration of each peptide giving 50% of the maximal activity (EC50) was calculated using a dose characteristic curve.

`CC(C)[C@H](NC(=O)CC[C@H](N)C(=O)O)C(=O)NCC(=O)O` [γ-Glu-Val-Gly] was tested, and the EC50 was 23 to 55 nM.
